According to the supplement of paper PMC10307832:

Columns and labels:
Experiment in all cases: relative viability (nuclei count vs DMSO), 5 days (fraction); higher = more cells survive
[1] = tested on: NCI-H661
Summary of the method: (§1)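 Nuclei were stained with Hoechst during a one-step fixation (final 0.05% Triton X-100, 1% formaldehyde, 1 ug/ml Hoechst) carried out 5 days after dosing, then counted on 4× images. The cells, lung cancer lines in 1536-well plates, had been dosed by pin tool the day after seeding with one drug alone or a fixed anchor-drug dose plus five library-drug doses (not always all listed) in √10 steps. Relative viability is the nuclei count in treated wells divided by that in vehicle wells, and each value is the median of duplicate plates.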

[2] = tested on: LC-2-ad
Summary of the method: as §1

[3] = tested on: HCC-78
Summary of the method: as §1

[4] = tested on: NCI-H2347
Summary of the method: as §1

[5] = tested on: PC-14
Summary of the method: as §1

[6] = tested on: NCI-H520
Summary of the method: as §1

[7] = tested on: EPLC-272H
Summary of the method: as §1

[8] = tested on: NCI-H322M
Summary of the method: as §1

[9] = tested on: NCI-H647
Summary of the method: as §1

[10] = tested on: 201T
Summary of the method: as §1

[11] = tested on: LCLC-97TM1
Summary of the method: as §1

[12] = tested on: NCI-H23
Summary of the method: as §1

[13] = tested on: NCI-H2087
Summary of the method: as §1

[14] = tested on: HCC-827
Summary of the method: as §1

[15] = tested on: NCI-H2405
Summary of the method: as §1

[16] = tested on: NCI-H1666
Summary of the method: as §1

[17] = tested on: ChaGo-K-1
Summary of the method: as §1

[18] = tested on: RERF-LC-KJ
Summary of the method: as §1

[19] = tested on: NCI-H1915
Summary of the method: as §1

[20] = tested on: NCI-H650
Summary of the method: as §1

[21] = tested on: COR-L 105
Summary of the method: as §1

[22] = tested on: H3255
Summary of the method: as §1

[23] = tested on: NCI-H2126
Summary of the method: as §1

Compound CC1(C)CCC(c2ccc(Cl)cc2)=C(CN2CCN(c3ccc(C(=O)NS(=O)(=O)c4ccc(N[C@H](CCN5CCOCC5)CSc5ccccc5)c(S(=O)(=O)C(F)(F)F)c4)cc3)CC2)C1 [Navitoclax] + C[C@@H](Oc1cc(-c2cnn(C3CCNCC3)c2)cnc1N)c1c(Cl)ccc(F)c1Cl [Crizotinib] (partner 1 µM) has a relative viability ([1]; first compound 0.005 µM) of 1.12, a relative viability ([1]; first compound 0.01581 µM) of 0.964 and a relative viability ([1]; first compound 0.05 µM) of 0.947. The relative viability ([1]; first compound 0.1581 µM) was 0.951, the relative viability ([1]; first compound 0.5 µM) was 1 and the relative viability ([2]; first compound 0.005 µM) was 0.422. For the same compound, the relative viability ([2]; first compound 0.01581 µM) was 0.489, the relative viability ([2]; first compound 0.05 µM) was 0.538 and the relative viability ([2]; first compound 0.1581 µM) was 0.429. The relative viability ([2]; first compound 0.5 µM) was 0.575, the relative viability ([3]; first compound 0.005 µM) was 0.368 and the relative viability ([3]; first compound 0.01581 µM) was 0.376. For the same compound, the relative viability ([3]; first compound 0.1581 µM) was 0.345, the relative viability ([3]; first compound 0.5 µM) was 0.322 and the relative viability ([4]; first compound 0.005 µM) was 0.653. For the same compound, the relative viability ([4]; first compound 0.01581 µM) was 0.602, the relative viability ([4]; first compound 0.05 µM) was 0.2 and the relative viability ([4]; first compound 0.1581 µM) was 0.681. For the same compound, the relative viability ([4]; first compound 0.5 µM) was 0.705, the relative viability ([5]; first compound 0.005 µM) was 0.905 and the relative viability ([5]; first compound 0.01581 µM) was 0.977. The relative viability ([5]; first compound 0.05 µM) was 0.951, the relative viability ([5]; first compound 0.1581 µM) was 0.886 and the relative viability ([5]; first compound 0.5 µM) was 0.952. The relative viability ([6]; first compound 0.005 µM) was 0.751, the relative viability ([6]; first compound 0.01581 µM) was 0.715 and the relative viability ([6]; first compound 0.05 µM) was 0.762. For the same compound, the relative viability ([6]; first compound 0.1581 µM) was 0.737, the relative viability ([6]; first compound 0.5 µM) was 0.79 and the relative viability ([7]; first compound 0.005 µM) was 1.37. The relative viability ([7]; first compound 0.1581 µM) was 0.99, the relative viability ([7]; first compound 0.5 µM) was 1.08 and the relative viability ([8]; first compound 0.005 µM) was 0.885. The relative viability ([8]; first compound 0.01581 µM) was 0.954, the relative viability ([8]; first compound 0.05 µM) was 0.839 and the relative viability ([8]; first compound 0.1581 µM) was 0.858. The relative viability ([8]; first compound 0.5 µM) was 0.92, the relative viability ([9]; first compound 0.005 µM) was 1.16 and the relative viability ([9]; first compound 0.01581 µM) was 1.18. It also gave a relative viability ([9]; first compound 0.05 µM) of 1.42, a relative viability ([9]; first compound 0.1581 µM) of 0.874 and a relative viability ([9]; first compound 0.5 µM) of 0.896. It also gave a relative viability ([10]; first compound 0.005 µM) of 1.03, a relative viability ([10]; first compound 0.01581 µM) of 1.05 and a relative viability ([10]; first compound 0.05 µM) of 0.975. The relative viability ([10]; first compound 0.1581 µM) was 1.04, the relative viability ([10]; first compound 0.5 µM) was 1.03 and the relative viability ([11]; first compound 0.005 µM) was 0.358. For the same compound, the relative viability ([11]; first compound 0.01581 µM) was 0.337, the relative viability ([11]; first compound 0.05 µM) was 0.294 and the relative viability ([11]; first compound 0.1581 µM) was 0.333. The relative viability ([11]; first compound 0.5 µM) was 0.381, the relative viability ([12]; first compound 0.005 µM) was 0.519 and the relative viability ([12]; first compound 0.01581 µM) was 0.494. For the same compound, the relative viability ([12]; first compound 0.05 µM) was 0.516, the relative viability ([12]; first compound 0.1581 µM) was 0.516 and the relative viability ([12]; first compound 0.5 µM) was 0.545. For the same compound, the relative viability ([13]; first compound 0.005 µM) was 0.911, the relative viability ([13]; first compound 0.01581 µM) was 0.766 and the relative viability ([13]; first compound 0.05 µM) was 0.873. It also gave a relative viability ([13]; first compound 0.1581 µM) of 0.892, a relative viability ([13]; first compound 0.5 µM) of 0.976 and a relative viability ([14]; first compound 0.005 µM) of 0.96. It also gave a relative viability ([14]; first compound 0.01581 µM) of 0.962, a relative viability ([14]; first compound 0.05 µM) of 0.966 and a relative viability ([14]; first compound 0.1581 µM) of 0.958. For the same compound, the relative viability ([14]; first compound 0.5 µM) was 0.935, the relative viability ([15]; first compound 0.005 µM) was 0.788 and the relative viability ([15]; first compound 0.01581 µM) was 0.948. The relative viability ([15]; first compound 0.05 µM) was 0.824, the relative viability ([15]; first compound 0.1581 µM) was 0.838 and the relative viability ([15]; first compound 0.5 µM) was 0.794. It also gave a relative viability ([16]; first compound 0.005 µM) of 0.991, a relative viability ([16]; first compound 0.01581 µM) of 1.08 and a relative viability ([16]; first compound 0.05 µM) of 1.03. For the same compound, the relative viability ([16]; first compound 0.1581 µM) was 0.879, the relative viability ([16]; first compound 0.5 µM) was 0.975 and the relative viability ([17]; first compound 0.005 µM) was 1.1. For the same compound, the relative viability ([17]; first compound 0.01581 µM) was 1.11, the relative viability ([17]; first compound 0.05 µM) was 0.601 and the relative viability ([17]; first compound 0.1581 µM) was 1.1. It also gave a relative viability ([17]; first compound 0.5 µM) of 1.19, a relative viability ([18]; first compound 0.005 µM) of 0.825 and a relative viability ([18]; first compound 0.01581 µM) of 0.712. For the same compound, the relative viability ([18]; first compound 0.05 µM) was 0.789, the relative viability ([18]; first compound 0.1581 µM) was 0.796 and the relative viability ([18]; first compound 0.5 µM) was 0.833. For the same compound, the relative viability ([19]; first compound 0.005 µM) was 0.915, the relative viability ([19]; first compound 0.01581 µM) was 0.881 and the relative viability ([19]; first compound 0.05 µM) was 0.877. The relative viability ([19]; first compound 0.1581 µM) was 0.879, the relative viability ([19]; first compound 0.5 µM) was 0.858 and the relative viability ([20]; first compound 0.005 µM) was 0.636. It also gave a relative viability ([20]; first compound 0.01581 µM) of 0.699, a relative viability ([20]; first compound 0.05 µM) of 0.814 and a relative viability ([20]; first compound 0.1581 µM) of 0.707. The relative viability ([20]; first compound 0.5 µM) was 0.805, the relative viability ([21]; first compound 0.005 µM) was 0.651 and the relative viability ([21]; first compound 0.01581 µM) was 0.98. It also gave a relative viability ([21]; first compound 0.05 µM) of 0.773, a relative viability ([21]; first compound 0.1581 µM) of 0.927 and a relative viability ([21]; first compound 0.5 µM) of 0.699. The relative viability ([22]; first compound 0.005 µM) was 0.902, the relative viability ([22]; first compound 0.01581 µM) was 1.06 and the relative viability ([22]; first compound 0.05 µM) was 0.807. The relative viability ([22]; first compound 0.1581 µM) was 0.891, the relative viability ([22]; first compound 0.5 µM) was 0.835 and the relative viability ([23]; first compound 0.005 µM) was 1.04. It also gave a relative viability ([23]; first compound 0.01581 µM) of 1.05, a relative viability ([23]; first compound 0.05 µM) of 1.07 and a relative viability ([23]; first compound 0.1581 µM) of 1.01. It also gave a relative viability ([23]; first compound 0.5 µM) of 0.972.
